Eleven compounds from patent US4895842A, “Phenylalanine derivative and proteinase inhibitor” (Shosuke Okamoto, priority 1985, dated 1990) can be followed below.

The structures appear in SMILES notation. Like-named read-outs stand apart in the source and are kept apart here.

In experiment [1] the target is T1, bovine thrombin (Bos taurus, UniProt P00735). Briefly: Antithrombin activity: inhibition of S-2238 decomposition. The experiment is classed as biochemical. On the procedure: (ii) Determination of inhibition activity for S-2238 decomposition
An inhibitor sample is dissolved in a 0.05M Tris-hydrochloric acid buffer solution (pH=8.3) to make a total volume of 400 μl. To this solution, 50 μl of a 0.2 mM S-2238 solution is added and the mixture is incubated at a temperature of 37° C. for 5 minutes in a constant temperature bath. Then, 50 μl of a 0.2 unit/ml bovine thrombin solution is added thereto and the absorbance, at 405 nm, of the p-nitroaniline formed per minute is determined at a temperature of 37° C. by using the so-called initial velocity method. Thus, the concentration I50 (μmol) of the inhibitor sample at which the absorbance is one half (i.e., 1/2) of that obtained in the absence of the inhibitor sample, is determined.

For experiment [2], the target named is T1, bovine thrombin. Description: Antithrombin activity: inhibition of fibrin formation from fibrinogen. It counts as biochemical. As for the experimental part: (i) Determination of inhibition activity against fibrin formation
An inhibitor sample is dissolved in a 0.18M borate-physiological salt buffer solution (pH=7.4) to make the total volume to 500 μl. To this solution, 400 μl of a 0.2% bovine fibrinogen solution and 100 μl of a 4 unit/ml bovine thrombin solution are added at a temperature of 37° C. in a constant temperature bath. Thus, a coagulation time is determined. The inhibitor concentration I50 (μmol), at which the coagulation time obtained in the absence of the inhibitor is extended twice, is determined.

The target of a further experiment is T2, bovine trypsin (Bos taurus, UniProt P00760).
T2 sequence (P00760 24-246): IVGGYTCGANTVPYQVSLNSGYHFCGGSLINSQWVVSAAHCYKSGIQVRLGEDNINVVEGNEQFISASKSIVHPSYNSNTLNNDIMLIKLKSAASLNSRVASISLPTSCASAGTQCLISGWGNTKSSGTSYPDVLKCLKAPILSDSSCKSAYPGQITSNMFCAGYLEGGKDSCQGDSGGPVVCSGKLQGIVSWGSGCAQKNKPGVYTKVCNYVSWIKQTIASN
Briefly: Antitrypsin activity: inhibition of S-2238 decomposition. To be noted: Table 2; S-2238 substrate, pH 8.1, 37° C.; read-out: Trypsin S-2238 (I50). It counts as biochemical.

Experiment [3] deals with T3, human plasmin (Homo sapiens, UniProt P00747). Briefly: Antiplasmin activity: inhibition of fibrin decomposition. It counts as biochemical. To be noted: read-out: Plasmin Fibrin (I50). On the procedure: (i) Determination of inhibition activity for fibrin decomposition
An inhibitor sample is dissolved in a 0.18M borate-physiological salt buffer solution (pH=7.4) to make the total volume to 600 μl. To this buffer solution, 200 μl of a 0.2% bovine fibrinogen, 100 μl of a 0.3 casein unit/ml human plasmin solution, and 100 μl of a 50 unit/ml bovine thrombin solution, all dissolved in the above-mentioned buffer, are added at a temperature of 37° C. in a constant temperature bath. Then, the dissolution time of the fibrin mass formed above is determined.

The target in experiment [4] is T3, human plasmin. Briefly: biochemical. To be noted: read-out: Plasmin S-2251 (I50). As for the experimental part: An inhibitor sample is dissolved in a 0.05M Tris-hydrochloric acid buffer solution (pH=7.4) to make the total volume of 400 μl. […] Then, 50 μl of a 0.2 casein unit/ml human plasmin is added and the mixture is incubated at a temperature of 37° C. for 4 minutes. Thereafter, the reaction is stopped by adding 50 μl of 50% acetic acid.
Thus, the concentration I50 (μmol) of the inhibitor sample, at which the absorbance is one half (i.e., 1/2) of that obtained in the absence of the inhibitor, is determined.

In another experiment the target is human plasma kallikrein (Homo sapiens, UniProt P03952). Briefly: Anti-plasma kallikrein activity: inhibition of S-2302 decomposition. The experiment is classed as biochemical. To be noted: S-2302 substrate, read-out: Plasma Kallikrein S-2302 (I50).
The target in another experiment is human urokinase (Homo sapiens, UniProt P00749). Description: biochemical. To be noted: S-2444 substrate, read-out: Urokinase S-2444 (I50). As for the experimental part:
Determination of inhibition activity for S-2444 decomposition
An inhibitor sample is dissolved in a 0.05M Tris-hydrochloric acid buffer solution (pH=8.8) to make the total volume to 400 μl. To this solution, 50 μl of a 1 mM S-2444 solution is added and the mixture is incubated at a temperature of 37° C. for 5 minutes in a constant temperature bath. Then, 50 μl of a 500 unit/ml human urokinase is added and the mixture is incubated at a temperature of 37° C. for 5 minutes. Thereafter, 50 μl of 50% acetic acid is added to terminate the reaction. The absorbance of the p-nitroaniline formed in the reaction mixture is measured at 405 nm. Thus, the concentration I50 (μmol) of the inhibitor sample, at which the absorbance is one half (i.e., 1/2) of that obtained in the absence of the inhibitor sample, is determined.

[5] abbreviates: Table 2, S-2238 substrate, pH 8.3, 37° C., read-out: Thrombin S-2238 (I50).
Where [6] appears, read: Table 2, concentration at which fibrin dissolution time is extended twice, pH 7.4, 37° C.

human plasma kallikrein, sequence (P03952 391-638 limits assumed): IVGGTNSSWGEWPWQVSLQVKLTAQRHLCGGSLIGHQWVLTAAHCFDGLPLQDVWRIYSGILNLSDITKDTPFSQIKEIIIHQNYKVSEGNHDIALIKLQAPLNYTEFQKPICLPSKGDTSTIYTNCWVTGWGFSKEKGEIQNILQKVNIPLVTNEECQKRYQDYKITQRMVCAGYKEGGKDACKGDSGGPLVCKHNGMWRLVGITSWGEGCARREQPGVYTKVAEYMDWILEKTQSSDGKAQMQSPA
human plasma kallikrein, sequence (P03952 20-390 partner limits assumed): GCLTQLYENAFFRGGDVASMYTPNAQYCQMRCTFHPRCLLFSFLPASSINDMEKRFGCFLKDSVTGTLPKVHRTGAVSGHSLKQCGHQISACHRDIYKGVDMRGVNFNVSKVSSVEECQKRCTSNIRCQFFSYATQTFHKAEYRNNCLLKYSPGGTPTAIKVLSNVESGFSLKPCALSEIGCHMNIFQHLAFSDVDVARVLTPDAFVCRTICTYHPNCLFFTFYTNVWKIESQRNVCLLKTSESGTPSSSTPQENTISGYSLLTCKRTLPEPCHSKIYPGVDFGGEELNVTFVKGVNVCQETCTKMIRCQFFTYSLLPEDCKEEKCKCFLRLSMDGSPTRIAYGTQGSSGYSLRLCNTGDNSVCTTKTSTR
T3 sequence (P00747 581-810 limits assumed): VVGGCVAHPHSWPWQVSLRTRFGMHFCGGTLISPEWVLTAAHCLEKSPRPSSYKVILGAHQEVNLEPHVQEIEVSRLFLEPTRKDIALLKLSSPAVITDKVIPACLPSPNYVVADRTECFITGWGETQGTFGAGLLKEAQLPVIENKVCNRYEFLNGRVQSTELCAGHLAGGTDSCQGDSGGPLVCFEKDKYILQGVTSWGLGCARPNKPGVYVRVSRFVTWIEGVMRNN
T3 sequence (P00747 97-580 partner limits assumed): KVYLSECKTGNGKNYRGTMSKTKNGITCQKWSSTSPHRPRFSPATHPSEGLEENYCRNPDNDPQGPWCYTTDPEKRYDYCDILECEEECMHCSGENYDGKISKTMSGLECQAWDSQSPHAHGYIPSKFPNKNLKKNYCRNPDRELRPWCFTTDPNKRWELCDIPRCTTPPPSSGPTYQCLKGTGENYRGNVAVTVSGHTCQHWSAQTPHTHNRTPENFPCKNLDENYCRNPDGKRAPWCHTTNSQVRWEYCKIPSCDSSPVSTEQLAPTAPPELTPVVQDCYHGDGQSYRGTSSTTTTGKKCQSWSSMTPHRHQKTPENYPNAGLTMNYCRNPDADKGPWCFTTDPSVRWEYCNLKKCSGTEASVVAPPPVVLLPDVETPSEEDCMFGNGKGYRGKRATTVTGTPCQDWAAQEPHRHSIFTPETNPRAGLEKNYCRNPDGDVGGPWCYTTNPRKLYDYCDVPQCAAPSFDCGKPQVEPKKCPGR

For the compound `CC(=O)c1ccc(NC(=O)[C@H](Cc2ccccc2)NC(=O)[C@H]2CC[C@H](CN)CC2)cc1` [Compound No. 2, N-(trans-4-aminomethylcyclohexylcarbonyl)-L-phenylalanine 4-acetylanilide], the IC50 on bovine thrombin [1] (setting [5]) was above 1000 µM; against bovine thrombin [2], above 1000 µM; at bovine trypsin, 1300 nM.
For the compound `CC(=O)c1ccc(NC(=O)[C@H](Cc2ccc(OCc3cccc(Cl)c3)cc2)NC(=O)[C@H]2CC[C@H](CN)CC2)cc1` [Compound No. 35, N-(trans-4-aminomethylcyclohexylcarbonyl)-4-(3-chlorobenzyloxy)-L-phenylalanine 4-acetylanilide methane sulfonate], the IC50 at human plasmin [3] (setting [6]) is 95 nM; on bovine thrombin [1], above 100 µM; against bovine thrombin [2], above 50 µM; on bovine trypsin it was 1000 nM.
Regarding `CC(=O)NC(Cc1ccc(OCc2ccccc2)cc1)C(=O)N(C)C` (stereo not shown) [Table 3 Compound No. 5, reference compound], the IC50 on human plasmin [4] (Table 4, comparative compounds of Table 3, S-2251 substrate, pH 7.4, 37° C.) was above 200 µM; at human plasmin [3] (Table 4, comparative compounds of Table 3, fibrin dissolution time extended twice), above 200000 nM; on bovine thrombin [1] (Table 4, comparative compounds of Table 3, S-2238 substrate, pH 8.3, read-out: Thrombin S-2238 (I50)), above 200 µM; on bovine thrombin [2] (Table 4, comparative compounds of Table 3, coagulation time extended twice, read-out: Thrombin Fibrinogen (I50)), above 200 µM; on human plasma kallikrein (Table 4, comparative compounds of Table 3, pH 7.8), above 200 µM; on human urokinase (Table 4, comparative compounds of Table 3, pH 8.8), above 200 µM.
As for `CC(=O)c1ccc(NC(=O)[C@H](Cc2ccc(OC(C)C)cc2)NC(=O)[C@H]2CC[C@H](CN)CC2)cc1` [compound 14], the IC50 at human plasmin [4] is 168 µM; on human plasmin [3] (setting [6]), 4400 nM; at bovine thrombin [1] (setting [5]), above 400 µM; at bovine thrombin [2], above 500 µM; on human plasma kallikrein (Table 2, pH 7.8, 37° C.), 2.1 µM; at human urokinase (Table 2, pH 8.8, 37° C.), 80 µM.
For the compound `CC(=O)c1ccc(NC(=O)[C@H](Cc2ccc(OCc3c(Cl)cccc3Cl)cc2)NC(=O)[C@H]2CC[C@H](CN)CC2)cc1` [compound 20], the IC50 is 1.4 µM at human plasmin [4]; 310 nM at human plasmin [3] (setting [6]); above 50 µM on bovine thrombin [1] (setting [5]); above 25 µM at bovine thrombin [2]; 0.16 µM at human plasma kallikrein (Table 2, pH 7.8, 37° C.); 120 µM at human urokinase (Table 2, pH 8.8, 37° C.).
Turning to `Cc1ccc(NC(=O)[C@H](Cc2ccc(OCc3ccccc3)cc2)NC(=O)[C@H]2CC[C@H](CN)CC2)cc1` [compound 26], the IC50 is 6.9 µM on human plasmin [4]; 1100 nM on human plasmin [3] (setting [6]); above 100 µM at bovine thrombin [1] (setting [5]); above 100 µM against bovine thrombin [2]; 2.1 µM at human plasma kallikrein (Table 2, pH 7.8, 37° C.); 560 µM on human urokinase (Table 2, pH 8.8, 37° C.).
In the case of `NCC1CCC(C(=O)NC(Cc2ccc(OCc3ccccc3)cc2)C(=O)NCc2ccc(F)cc2)CC1` (stereo not shown) [compound 111], the IC50 on human plasmin [4] is 5.2 µM; at human plasmin [3] (setting [6]) it was 1100 nM; at bovine thrombin [1] (setting [5]), above 50 µM; on bovine trypsin, 5800 nM; at human plasma kallikrein (Table 2, pH 7.8, 37° C.), above 50 µM; on human urokinase (Table 2, pH 8.8, 37° C.) it was above 300 µM.
As to `NCc1ccc(C(=O)N[C@@H](Cc2ccc(OCc3ccccc3)cc2)C(=O)Nc2ccc(C(=O)O)cc2)cc1` [compound 139], the IC50 at human plasmin [4] was above 1000 µM; at human plasmin [3] (setting [6]) it was 190000 nM; on bovine thrombin [1] (setting [5]) it was above 1000 µM; at bovine thrombin [2] it was above 1000 µM; at human plasma kallikrein (Table 2, pH 7.8, 37° C.) it was above 1000 µM; on human urokinase (Table 2, pH 8.8, 37° C.) it was above 1000 µM.
For the compound `COc1ccc(NC(=O)[C@H](Cc2ccc(OCc3ccccc3)cc2)NC(=O)c2ccc(CN)cc2)cn1` [compound 140], the IC50 on human plasmin [4] is 8.8 µM; at human plasmin [3] (setting [6]) it was 2500 nM; on bovine thrombin [1], above 200 µM; against bovine thrombin [2], above 200 µM; at human plasma kallikrein (Table 2, pH 7.8, 37° C.), 18 µM; on human urokinase (Table 2, pH 8.8, 37° C.), above 100 µM.
As for `CC(=O)c1ccc(NC(=O)[C@H](Cc2ccc(OC(=O)OCc3ccccc3Cl)cc2)NC(=O)[C@H]2CC[C@H](CN)CC2)cc1` [compound 145], the IC50 was 0.56 µM at human plasmin [4]; 75 nM on human plasmin [3] (setting [6]); 86 µM at bovine thrombin [1] (setting [5]); above 50 µM at bovine thrombin [2]; 0.75 µM at human plasma kallikrein (Table 2, pH 7.8, 37° C.); 31 µM at human urokinase (Table 2, pH 8.8, 37° C.).
Consider `CC(=O)c1ccc(NC(=O)[C@H](Cc2ccc(OC(=O)OCc3ccccc3)cc2)NC(=O)[C@H]2CC[C@H](CN)CC2)cc1` [compound 146], for which the IC50 on human plasmin [4] was 0.64 µM; on human plasmin [3] (setting [6]), 290 nM; on bovine thrombin [1] (setting [5]), above 100 µM; against bovine thrombin [2], above 100 µM; at human plasma kallikrein (Table 2, pH 7.8, 37° C.), 0.58 µM; at human urokinase (Table 2, pH 8.8, 37° C.), 45 µM.
